Assay results: PubChem BioAssay AID296 (DTP/NCI, 2004)
Several values for one entry are separate records, joined by “and”; a condition that tells them apart may be missing. Equal entries are not always repeated. Results filed as inconclusive are left out.

System: MX-1 breast xenograft, nude mice, tumor weight T/C
Assay: NCI In Vivo Anticancer Drug Screen. Data for tumor model Human Mammary Carcinoma MX-1 Xenograft (intrarenal inoculation) in NU/NU Swiss (nude) mice
Conditions: endpoint: mean tumor weight change, higher = larger tumour
In short: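 Activity is given as a ratio, with each measurement in the compound-treated arm divided by the matching measurement in vehicle-dosed controls. Tumour size or survival serves as the measured parameter.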

[1] = dose: 50.0 mg/kg/injection, schedule: Q01DX010 (sc), vehicle: suspension in saline
[2] = dose: 300.0 mg/kg/injection, schedule: Q04DX003 (sc), vehicle: saline with Tween-80
[3] = dose: 600.0 mg/kg/injection, schedule: Q04DX003 (sc), vehicle: saline with Tween-80
[4] = dose: 1200.0 mg/kg/injection, schedule: Q04DX003 (sc), vehicle: saline with Tween-80
[5] = dose: 2400.0 mg/kg/injection, schedule: Q04DX003 (sc), vehicle: saline with Tween-80
[6] = dose: 150.0 mg/kg/injection, schedule: Q04DX003 (sc), vehicle: saline with Tween-80
[7] = dose: 300.0 mg/kg/injection, schedule: Q04DX003 (sc), vehicle: Klucel (hydroxypropylcellulose) (HPC)
[8] = dose: 600.0 mg/kg/injection, schedule: Q04DX003 (sc), vehicle: Klucel (hydroxypropylcellulose) (HPC)
[9] = dose: 1200.0 mg/kg/injection, schedule: Q04DX003 (sc), vehicle: Klucel (hydroxypropylcellulose) (HPC)
[10] = dose: 2400.0 mg/kg/injection, schedule: Q04DX003 (sc), vehicle: Klucel (hydroxypropylcellulose) (HPC)

In the case of `OCC1OC(n2cnc3c(=S)nc[nH]c32)C(O)C1O` (stereo not given), the T/C (dose: 25.0 mg/kg/injection, schedule: Q01DX010 (sc), vehicle: saline) is reported as 38 % of control and 60 % of control, the T/C [1] is reported as 84 % of control and the T/C (dose: 100.0 mg/kg/injection, schedule: Q01DX010 (sc), vehicle: saline) is reported as 12 % of control and 17 % of control. For the same compound, the T/C (dose: 100.0 mg/kg/injection, schedule: Q01DX010 (sc), vehicle: suspension in saline) was -81 % of control, the T/C (dose: 200.0 mg/kg/injection, schedule: Q01DX010 (sc), vehicle: saline) was -22 % of control and the T/C (dose: 300.0 mg/kg/injection, schedule: Q04DX003 (sc), vehicle: saline) was 98 % of control. For the same compound, the T/C (dose: 600.0 mg/kg/injection, schedule: Q04DX003 (sc), vehicle: saline) was 69 % of control, the T/C (dose: 1200.0 mg/kg/injection, schedule: Q04DX003 (sc), vehicle: saline) was 39 % of control and the T/C (dose: 2400.0 mg/kg/injection, schedule: Q04DX003 (sc), vehicle: saline) was 13 % of control.
For `O=Cc1ccc([N+](=O)[O-])s1`, the T/C (dose: 25.0 mg/kg/injection, schedule: Q01DX010 (sc), vehicle: saline with Tween-80) was 90 % of control, the T/C (dose: 50.0 mg/kg/injection, schedule: Q01DX010 (sc), vehicle: saline with Tween-80) was 89 % of control and the T/C (dose: 100.0 mg/kg/injection, schedule: Q01DX010 (sc), vehicle: saline with Tween-80) was 56 % of control.
In the case of `NC(=O)c1cc(Cl)nc2nc(Cl)nc(N)c12`, the T/C (dose: 150.0 mg/kg/injection, schedule: Q04DX003 (ip), vehicle: saline with Tween-80) is reported as 112 % of control, the T/C (dose: 300.0 mg/kg/injection, schedule: Q04DX003 (ip), vehicle: saline with Tween-80) is reported as 108 % of control and the T/C (dose: 600.0 mg/kg/injection, schedule: Q04DX003 (ip), vehicle: saline with Tween-80) is reported as 90 % of control. The T/C (dose: 1200.0 mg/kg/injection, schedule: Q04DX003 (ip), vehicle: saline with Tween-80) was 93 % of control.
In the case of `CCCCc1ccc(-n2c(C)c(COC(=O)NC)c(COC(=O)NC)c2C)cc1`, the T/C (dose: 12.5 mg/kg/injection, schedule: Q01DX010 (sc), vehicle: Klucel (hydroxypropylcellulose) (HPC)) is reported as 114 % of control, the T/C (dose: 25.0 mg/kg/injection, schedule: Q01DX010 (sc), vehicle: Klucel (hydroxypropylcellulose) (HPC)) is reported as 84 % of control and the T/C (dose: 50.0 mg/kg/injection, schedule: Q01DX010 (sc), vehicle: Klucel (hydroxypropylcellulose) (HPC)) is reported as 34 % of control. For the same compound, the T/C (dose: 100.0 mg/kg/injection, schedule: Q01DX010 (sc), vehicle: Klucel (hydroxypropylcellulose) (HPC)) was 77 % of control.
With `CCC(=O)Sc1ccccc1C(=O)Nc1ccc(Cl)cc1` the T/C [2] was 63 % of control, the T/C [3] was 75 % of control and the T/C [4] was 58 % of control. For the same compound, the T/C [5] was 69 % of control.
`NC(=O)c1csc(C2OC(CO)C(O)C2O)n1` (stereo not given) was tested, and the T/C (dose: 200.0 mg/kg/injection, schedule: Q04DX003 (sc), vehicle: water) was 90 % of control, the T/C (dose: 400.0 mg/kg/injection, schedule: Q04DX003 (sc), vehicle: water) was 96 % of control and the T/C (dose: 800.0 mg/kg/injection, schedule: Q04DX003 (sc), vehicle: water) was 118 % of control.
In the case of `C=C1C(C)C2C(Cc3ccccc3)NC(=O)C23C(OC(C)=O)C=CC(C)(O)C(=O)C(C)C/C=C/C3C1O` (stereo not given), the T/C (dose: 3.75 mg/kg/injection, schedule: Q04DX003 (sc), vehicle: Klucel (hydroxypropylcellulose) (HPC)) is reported as 344 % of control, the T/C (dose: 7.5 mg/kg/injection, schedule: Q04DX003 (sc), vehicle: Klucel (hydroxypropylcellulose) (HPC)) is reported as 528 % of control and the T/C (dose: 15.0 mg/kg/injection, schedule: Q04DX003 (sc), vehicle: Klucel (hydroxypropylcellulose) (HPC)) is reported as 497 % of control.
In the case of `Cc1c2ccncc2c(C)c2c1[nH]c1ccccc12`, the T/C (dose: 6.25 mg/kg/injection, schedule: Q01DX010 (sc), vehicle: saline) is reported as 63 % of control, the T/C [1] is reported as 81 % of control and the T/C (dose: 200.0 mg/kg/injection, schedule: Q01DX010 (sc), vehicle: suspension in saline) is reported as 85 % of control.
In the case of `N=C(N)SCc1cccc2c(=O)cc(-c3ccccc3)oc12`, the T/C (dose: 300.0 mg/kg/injection, schedule: Q04DX003 (sc), vehicle: suspension in saline) is reported as 110 % of control.
With `COc1cccc2c1C(=O)c1c(O)c3c(c(O)c1C2=O)C[C@@](O)(C(C)=O)C[C@@H]3OC1CC(N)C(O)C(C)O1` (stereo not given in full) the T/C (dose: 0.5 mg/kg/injection, schedule: Q01DX010 (sc), vehicle: saline) was 161 % of control and the T/C (dose: 4.0 mg/kg/injection, schedule: Q01DX010 (sc), vehicle: saline) was 78 % of control and 89 % of control.
For `O=[N+]([O-])c1ccc(-n2[nH]nnc2=S)cc1`, the T/C (dose: 200.0 mg/kg/injection, schedule: Q04DX003 (sc), vehicle: Klucel (hydroxypropylcellulose) (HPC)) was 158 % of control, the T/C (dose: 400.0 mg/kg/injection, schedule: Q04DX003 (sc), vehicle: Klucel (hydroxypropylcellulose) (HPC)) was 151 % of control and the T/C (dose: 800.0 mg/kg/injection, schedule: Q04DX003 (sc), vehicle: Klucel (hydroxypropylcellulose) (HPC)) was 169 % of control.
In the case of `CN(C)P(=O)(Oc1ccccc1)N(C)C`, the T/C [6] is reported as 97 % of control, the T/C [2] is reported as 107 % of control and the T/C [3] is reported as 113 % of control. The T/C [4] was 71 % of control.
In the case of `CCOC(=O)CNC(=O)CCCCSc1ncnc2nc[nH]c12`, the T/C [4] is reported as 109 % of control and the T/C [5] is reported as 86 % of control.
For `CN(C)C1C(=O)C(C(=O)NP(=O)(NCCCO)N(CCCl)CCCl)=C(O)C2(O)C(=O)C3=C(O)c4c(O)cccc4C(C)(O)C3CC12` (stereo not given), the T/C [6] was -100 % of control, the T/C [2] was -98 % of control and the T/C [3] was -100 % of control.
With `OC(CCl)CN1CC[N+]2(CC1)CC[N+]1(CCN(CC(O)CCl)CC1)CC2` (stereo not given) the T/C (dose: 8.0 mg/kg/injection, schedule: Q01DX010 (sc), vehicle: water) was 117 % of control, the T/C (dose: 32.0 mg/kg/injection, schedule: Q01DX010 (ip), vehicle: water) was 90 % of control and the T/C (dose: 64.0 mg/kg/injection, schedule: Q01DX010 (ip), vehicle: water) was 88 % of control. For the same compound, the T/C (dose: 64.0 mg/kg/injection, schedule: Q01DX010 (sc), vehicle: water) was 92 % of control and 94 % of control, the T/C (dose: 106.66 mg/kg/injection, schedule: Q04DX003 (ip), vehicle: water) was 30 % of control and the T/C (dose: 106.66 mg/kg/injection, schedule: Q04DX003 (sc), vehicle: water) was 45 % of control. The T/C (dose: 128.0 mg/kg/injection, schedule: Q01DX010 (ip), vehicle: water) was 21 % of control, the T/C (dose: 213.33 mg/kg/injection, schedule: Q04DX003 (ip), vehicle: water) was 52 % of control and the T/C (dose: 213.33 mg/kg/injection, schedule: Q04DX003 (sc), vehicle: water) was 59 % of control. For the same compound, the T/C (dose: 256.0 mg/kg/injection, schedule: Q01DX010 (ip), vehicle: water) was 27 % of control, the T/C (dose: 426.65 mg/kg/injection, schedule: Q04DX003 (ip), vehicle: water) was 26 % of control and the T/C (dose: 426.65 mg/kg/injection, schedule: Q04DX003 (sc), vehicle: water) was 49 % of control. The T/C (dose: 512.0 mg/kg/injection, schedule: Q01DX010 (sc), vehicle: water) was 25 % of control.
In the case of `O=NN(CCCl)C(=O)Oc1cc(Cl)c(Cl)cc1Cl`, the T/C [7] is reported as 64 % of control, the T/C [8] is reported as 35 % of control and the T/C [9] is reported as 21 % of control. The T/C [10] was 33 % of control.
For `C=C(C)[C@H]1Cc2c(ccc3c2O[C@@H]2COc4cc(OC)c(OC)cc4[C@@H]2C3=O)O1`, the T/C (dose: 4.0 mg/kg/injection, schedule: Q01DX010 (sc), vehicle: saline with Tween-80) was 94 % of control and the T/C (dose: 8.0 mg/kg/injection, schedule: Q01DX010 (sc), vehicle: saline with Tween-80) was 80 % of control.
With `CC(=O)OCN(C)C=O` the T/C (dose: 300.0 mg/kg/injection, schedule: Q01DX010 (sc), vehicle: water) was 100 % of control, the T/C (dose: 600.0 mg/kg/injection, schedule: Q01DX010 (sc), vehicle: water) was 54 % of control and the T/C (dose: 1200.0 mg/kg/injection, schedule: Q01DX010 (sc), vehicle: water) was 18 % of control. For the same compound, the T/C (dose: 2400.0 mg/kg/injection, schedule: Q01DX010 (sc), vehicle: water) was -8 % of control.
With `CN(C)C(=O)SC1=C(c2c(Cl)cccc2Cl)C(=O)c2ccccc21` the T/C [7] was 76 % of control, the T/C [8] was 65 % of control and the T/C [9] was 57 % of control. The T/C [10] was 67 % of control.
